# Assay results taken from patent US9512120B2, “Microbicidally active imidazopyridine derivatives” (Syngenta Participations AG, priority 2013, dated 2016).
# How the values were obtained:
# [1] = tested on: Monographella nivalis (Microdochium nivale); assay: Monographella nivalis (Microdochium nivale) / liquid culture (foot rot cereals); type: cell-based; details: PDB, 24° C., 4-5 days after application, read-out: control of Monographella nivalis (inhibition of growth, photometric)
# In short: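 Cryostored conidia in potato dextrose broth were added to test compound dispensed from DMSO at 200 ppm. Plates were kept at 24° C, and growth inhibition was read photometrically 4-5 days after application.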
# [2] = tested on: Mycosphaerella graminicola (Septoria tritici); assay: Mycosphaerella graminicola (Septoria tritici) / liquid culture (Septoria blotch); type: cell-based; details: Zymoseptoria tritici, PDB, 24° C., 4-5 days after application, read-out: control of Mycosphaerella graminicola (inhibition of growth, photometric)
# In short: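 Growth inhibition was read photometrically after 4–5 days at 24 °C. The test compound was applied at 200 ppm from DMSO solution, then PDB broth seeded with conidia taken straight from cryogenic storage was added.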
# Sclerotinia sclerotiorum = Sclerotinia sclerotiorum liquid culture (cottony rot / white mold); type: cell-based; details: PDB, 24° C., 3-4 days after application, read-out: control of Sclerotinia sclerotiorum (inhibition of growth, photometric)
# In short: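 Mycelia fragments of Sclerotinia sclerotiorum in potato dextrose broth were added to compound in DMSO. Cultures incubated at 24° C; growth inhibition determined photometrically 3-4 days after application.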
# [3] = tested on: Botryotinia fuckeliana (Botrytis cinerea); assay: Botryotinia fuckeliana (Botrytis cinerea) / liquid culture (gray mould); type: cell-based; details: Vogels broth, 24° C., 3-4 days after application, read-out: control of Botryotinia fuckeliana (inhibition of growth, photometric)
# In short: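 Test compound was applied at 200 ppm in DMSO, then Vogels nutrient broth containing cryo-stored B. cinerea conidia was added. Photometric growth-inhibition reading followed after 3-4 days at 24 °C.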
# [4] = tested on: Glomerella lagenarium (Colletotrichum lagenarium); assay: Glomerella lagenarium (Colletotrichum lagenarium) / liquid culture (anthracnose); type: cell-based; details: Colletotrichum orbiculare, PDB, 24° C., 3-4 days after application, read-out: control of Glomerella lagenarium (inhibition of growth, photometric)
# In short: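 Test compound, delivered in DMSO at an application rate of 200 ppm, was combined with spore-containing PDB. Photometric growth-inhibition measurement followed 3-4 days of incubation at 24° C.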
# [5] = tested on: Thanatephorus cucumeris (Rhizoctonia solani); assay: Thanatephorus cucumeris (Rhizoctonia solani) / liquid culture (foot rot, damping-off); type: cell-based; details: PDB, 24° C., 3-4 days after application, read-out: control of Thanatephorus cucumeris (inhibition of growth, photometric)
# In short: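 At 200 ppm, compounds in DMSO were combined with fresh liquid-culture mycelia in PDB and kept at 24° C; photometric measurement of growth inhibition after 3-4 days.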
# Fusarium culmorum = assay: microbe, parasite or virus in culture; type: cell-based; details: read-out: control of Fusarium culmorum (inhibition of growth, photometric)
# [6] = tested on: Puccinia recondita f. sp. Tritici; assay: Puccinia recondita f. sp. tritici / wheat / leaf disc preventative (brown rust); type: in vivo; details: foliar, wheat leaf segments cv Kanzler, inoculated 1 day after application, assessed 7-9 days after application, read-out: control of Puccinia recondita f. sp. Tritici (percent disease control compared to untreated)
# In short: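 Preventative test: percent disease control relative to untreated leaf segments was assessed 7-9 days post-application. Wheat (cv Kanzler) leaf discs were treated at 200 ppm and spore-inoculated 1 day afterwards. Discs were held at 19° C and 75% relative humidity under a 12/12 h light cycle.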
# Pyrenophora teres = Pyrenophora teres / barley / leaf disc preventative (net blotch); type: in vivo; details: foliar, barley leaf segments cv Hasso, inoculated two days after application, assessed 5-7 days after application, read-out: control of Pyrenophora teres (disease control compared to untreated)
# In short: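 Preventative leaf-disc test: 200 ppm spray, then spore inoculation after two days on barley cv Hasso segments. Incubation 20 °C, 65% relative humidity, 12 h light/12 h dark; efficacy rated against untreated checks at 5-7 days post-application.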
# [7] = tested on: Mycosphaerella arachidis (Cercospora arachidicola); assay: Mycosphaerella arachidis (Cercospora arachidicola) / liquid culture (early leaf spot); type: cell-based; details: PDB, 24° C., 4-5 days after application, read-out: control of Mycosphaerella arachidis (inhibition of growth, photometric)
# In short: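 Conidia suspended in potato dextrose broth and added to test compound from DMSO solution at 200 ppm. Incubated at 24 °C; growth inhibition read photometrically 4-5 days after application.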
# [8] = tested on: Phaeosphaeria nodorum (Septoria nodorum); assay: Phaeosphaeria nodorum (Septoria nodorum) / wheat / leaf disc preventative (glume blotch); type: in vivo; details: Parastagonospora nodorum, foliar, wheat leaf segments cv Kanzler, inoculated 2 days after application, assessed 5-7 days after application, read-out: control of Phaeosphaeria nodorum (percent disease control compared to untreated)
# In short: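 Wheat leaf segments (cv Kanzler) on agar sprayed with compound at 200 ppm, inoculated with spores 2 days later. Incubated at 20° C., 75% relative humidity, 12/12 h light/dark; percent disease control versus untreated scored 5-7 days after application.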
# Gaeumannomyces graminis = Gaeumannomyces graminis / liquid culture (take-all of cereals); type: cell-based; details: PDB, 24° C., 4-5 days after application, read-out: control of Gaeumannomyces graminis (inhibition of growth, photometric)
# In short: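 Growth inhibition, measured by photometry 4-5 days post-application at 24 °C, of fungal mycelial fragments in PDB broth. Test compound applied as DMSO solution at 200 ppm.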
# Pythium ultimum = Pythium ultimum / liquid culture (seedling damping off); type: cell-based; details: Globisporangium ultimum, potato dextrose broth, 24° C., 2-3 days after application, read-out: control of Pythium ultimum (inhibition of growth, photometric)
# Protocol: Pythium ultimum/Liquid Culture (Seedling Damping Off) Mycelia fragments and oospores of a newly grown liquid culture of the fungus were directly mixed into nutrient broth (potato dextrose broth). After placing a DMSO solution of test compound into a 96-well format microtiter plate at an application rate of 200 ppm, the nutrient broth containing the fungal mycelia/spore mixture was added. The test plates were incubated at 24° C. and the inhibition of growth was determined photometrically 2-3 days after application.
# Plasmopara viticola = Plasmopara viticola / grape / leaf disc preventative; type: in vivo; details: foliar, grape vine leaf disks, inoculated 1 day after application, assessed 6-8 days after application, read-out: control of Plasmopara viticola (percent disease control compared to untreated)
SMILES,inhibition at 20 ppm [1] [%],inhibition at 20 ppm [2] [%],inhibition at 20 ppm (Sclerotinia sclerotiorum) [%],melting point [°C],inhibition at 20 ppm [3] [%],inhibition at 20 ppm [4] [%],inhibition at 20 ppm [5] [%],inhibition at 20 ppm (Fusarium culmorum) [%],pest or weed control at 200 ppm [6] [%],pest or weed control at 200 ppm (Pyrenophora teres) [%],inhibition at 20 ppm [7] [%],pest or weed control at 200 ppm [8] [%],inhibition at 20 ppm (Gaeumannomyces graminis) [%],inhibition at 20 ppm (Pythium ultimum) [%],pest or weed control at 200 ppm (Plasmopara viticola) [%]
"CCn1c(-n2ncnc2N)nc2cncc(Br)c21 [Compound 15, 2-(7-bromo-1-ethylimidazo[4,5-c]pyridin-2-yl)-1,2,4-triazol-3-amine]",≥ 80,≥ 80,≥ 80,231 to 232,≥ 80,≥ 80,≥ 80,≥ 80,≥ 80,≥ 80,≥ 80,≥ 80,≥ 80,–,–
"C=C(OCC)c1cncc2nc(-n3ncnc3N)n(CC)c12 [Compound 74, 2-[7-(1-ethoxyethenyl)-1-ethylimidazo[4,5-c]pyridin-2-yl]-1,2,4-triazol-3-amine]",≥ 80,≥ 80,≥ 80,193 to 195,≥ 80,≥ 80,≥ 80,≥ 80,≥ 80,≥ 80,≥ 80,≥ 80,≥ 80,–,–
"CCn1c(-n2ncnc2N)nc2cncc(-c3ccc(OC)cc3F)c21 [Compound 96, 2-[1-ethyl-7-(2-fluoro-4-methoxyphenyl)imidazo[4,5-c]pyridin-2-yl]-1,2,4-triazol-3-amine]",≥ 80,≥ 80,≥ 80,–,≥ 80,≥ 80,≥ 80,≥ 80,≥ 80,≥ 80,–,≥ 80,≥ 80,≥ 80,–
"CCn1c(-n2ncnc2N)nc2cncc(-c3ccc(F)cc3Cl)c21 [Compound 101, 2-[7-(2-chloro-4-fluorophenyl)-1-ethylimidazo[4,5-c]pyridin-2-yl]-1,2,4-triazol-3-amine]",≥ 80,≥ 80,≥ 80,–,≥ 80,≥ 80,≥ 80,≥ 80,≥ 80,≥ 80,≥ 80,≥ 80,≥ 80,≥ 80,–
"C=Cc1cncc2nc(-n3ncnc3N)n(CC)c12 [Compound 106, 2-(7-ethenyl-1-ethylimidazo[4,5-c]pyridin-2-yl)-1,2,4-triazol-3-amine]",≥ 80,≥ 80,≥ 80,178 to 186,≥ 80,–,≥ 80,≥ 80,–,≥ 80,≥ 80,–,≥ 80,≥ 80,–
"CCn1c(-n2ncnc2N)nc2cncc(C#CC3CC3)c21 [Compound 123, 2-[7-(2-cyclopropylethynyl)-1-ethylimidazo[4,5-c]pyridin-2-yl]-1,2,4-triazol-3-amine]",≥ 80,≥ 80,≥ 80,188 to 192,≥ 80,≥ 80,≥ 80,≥ 80,≥ 80,≥ 80,≥ 80,≥ 80,≥ 80,–,–
CCCCCCO/N=C(/C)c1cncc2nc(-n3ncnc3N)n(CC)c12 [Compound 147],≥ 80,≥ 80,≥ 80,–,≥ 80,≥ 80,≥ 80,≥ 80,≥ 80,≥ 80,≥ 80,≥ 80,–,–,–
C/C=C/CO/N=C(/C)c1cncc2nc(-n3ncnc3N)n(CC)c12 [Compound 176],≥ 80,≥ 80,≥ 80,–,≥ 80,–,≥ 80,≥ 80,–,≥ 80,≥ 80,≥ 80,≥ 80,≥ 80,≥ 80
C=C(C)CO/N=C(/C)c1cncc2nc(-n3ncnc3N)n(CC)c12 [Compound 178],≥ 80,≥ 80,≥ 80,–,≥ 80,–,≥ 80,≥ 80,≥ 80,≥ 80,≥ 80,–,≥ 80,–,≥ 80
CCCn1c(-n2ncnc2N)nc2cncc(/C(C)=N\OC/C=C\Cl)c21 [Compound 180],≥ 80,≥ 80,≥ 80,–,≥ 80,–,≥ 80,≥ 80,≥ 80,≥ 80,≥ 80,–,≥ 80,≥ 80,≥ 80
CCCn1c(-n2ncnc2N)nc2cncc(/C(C)=N\OC/C=C/Cl)c21 [Compound 182],≥ 80,≥ 80,≥ 80,–,≥ 80,–,≥ 80,≥ 80,≥ 80,≥ 80,≥ 80,≥ 80,–,–,≥ 80
CCCn1c(-n2ncnc2N)nc2cncc(/C(C)=N\OC/C=C(\C)Cl)c21 [Compound 184],≥ 80,≥ 80,≥ 80,–,≥ 80,–,≥ 80,≥ 80,≥ 80,≥ 80,≥ 80,≥ 80,≥ 80,–,≥ 80
